The values below come from ChEMBL document CHEMBL1268824, “Synthesis and SAR studies of 1,4-benzoxazine MenB inhibitors: novel antibacterial agents against Mycobacterium tuberculosis” (Bioorg Med Chem Lett, 2010).

Test [1] concerns Mycobacterium tuberculosis. As to the kind of experiment: Antibacterial activity against Mycobacterium tuberculosis H37Rv after 5 to 7 days by alamar blue assay. The test is classed as functional.
The target in test [2] is T1, 1,4-dihydroxy-2-naphthoyl-CoA synthase (Mycobacterium tuberculosis, UniProt P9WNP5).
T1 sequence (P9WNP5 whole entry): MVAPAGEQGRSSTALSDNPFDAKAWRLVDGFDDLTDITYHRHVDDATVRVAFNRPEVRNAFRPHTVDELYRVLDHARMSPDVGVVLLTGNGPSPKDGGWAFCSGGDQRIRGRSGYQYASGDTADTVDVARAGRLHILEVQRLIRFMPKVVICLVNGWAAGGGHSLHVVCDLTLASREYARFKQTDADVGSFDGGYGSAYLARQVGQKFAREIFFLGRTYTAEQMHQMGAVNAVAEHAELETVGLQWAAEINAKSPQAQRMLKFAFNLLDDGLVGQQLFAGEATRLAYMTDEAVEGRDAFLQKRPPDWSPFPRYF
As to the kind of experiment: Inhibition of Mycobacterium tuberculosis MenB expressed in Escherichia coli BL21 (DE3) by double-reciprocal plot analysis.

In test [3] the test system is Escherichia coli. Description: Antibacterial activity against Escherichia coli M17 assessed as bacterial growth inhibition. The test is classed as functional, organism-based.
Test [4] addresses T2, 1,4-dihydroxy-2-naphthoyl-CoA synthase (Mycobacterium tuberculosis) (UniProt P9WNP5).
T2 sequence (whole entry): T1 sequence (P9WNP5 whole entry)
Description: Inhibition of Mycobacterium tuberculosis MenB expressed in Escherichia coli BL21 (DE3) up to 100 uM by double-reciprocal plot analysis.

The next test deals with Staphylococcus aureus. Description: Antibacterial activity against Staphylococcus aureus P209 assessed as bacterial growth inhibition. The test is classed as functional, organism-based.
For test [5], the target named is T2, 1,4-dihydroxy-2-naphthoyl-CoA synthase (Mycobacterium tuberculosis). As to the kind of experiment: Inhibition of Mycobacterium tuberculosis MenB expressed in Escherichia coli BL21 (DE3) at 125 ug/ml by double-reciprocal plot analysis.
Test [6] concerns Escherichia coli. Description: Inhibition of Escherichia coli MenE expressed in Escherichia coli BL21 (DE3) at 50 uM by double-reciprocal plot analysis.
The next test has as its system Mycobacterium avium. Description: Antibacterial activity against Mycobacterium avium. The class given is functional.
The target of test [7] is T1, 1,4-dihydroxy-2-naphthoyl-CoA synthase. As to the kind of experiment: Non-competitive inhibition of Mycobacterium tuberculosis MenB expressed in Escherichia coli BL21 (DE3) assessed as inhibition of enzyme-substrate complex formation.
For test [8] the target is unchanged. As to the kind of experiment: Non-competitive inhibition of Mycobacterium tuberculosis MenB expressed in Escherichia coli BL21 (DE3).

≈ marks a conversion by molar mass, not a printed value. Calls of active or inactive are those of the source. The rule behind the calls is not given here.

For the compound `COC(=O)/C=C1\Nc2ccc(C)cc2OC1=O`, in [1], it took 100 µg/mL (≈ 429 µM) to inhibit growth (MIC). Further, the midpoint of inhibition in [2], the IC50, lay at 18.2 µM.
Take `O=C1Oc2ccc(Cl)cc2N/C1=C\C(=O)c1ccccc1Cl`: it took 12.5 µg/mL (≈ 37.4 µM) to inhibit growth in test [1] (MIC). For the same compound, the “growth inhibition (GI)” value in the test on Escherichia coli [3] and in the test with Staphylococcus aureus was “Active” throughout. Further, the inhibition entry in test [4] was “inactive”.
Compound `Cc1ccc2c(c1)N/C(=C\C(=O)CC(C)C)C(=O)O2` showed an inhibition in test [5] of 77.3%. The inhibition entry in the test with Escherichia coli [6] was “inactive”.
As to `Cc1ccc2c(c1)OC(=O)/C(=C/C(=O)c1ccccc1Cl)N2`, the minimal inhibitory concentration (MIC) in [1] was > 100 µg/mL. Besides, the “growth inhibition (GI)” value in the test on Escherichia coli [3] and in the test with Staphylococcus aureus was “Active” in each case. Moreover, the inhibition result in test [4] is “inactive”.
In the case of `O=C1Oc2ccc(F)cc2N/C1=C\C(=O)c1ccccc1Cl`, 3.13 µg/mL (≈ 9.85 µM) was the least that counted as inhibitory in [1] (MIC). Besides, the “growth inhibition (GI)” value in the test on Escherichia coli [3] and in the test on Staphylococcus aureus was “Active” throughout. For the same compound, the inhibition result in test [4] is “inactive”.
Turning to `COC(=O)/C=C1\Nc2ccccc2NC1=O`, in test [1], the minimum inhibitory concentration (MIC) is > 100 µg/mL. For the same compound, the Activity in the test on Mycobacterium avium is >64 µg/mL. For the same compound, in test [2], the IC50 is > 122 µM.
For `COC(=O)/C=C1\Nc2ccc([N+](=O)[O-])cc2OC1=O`, the minimal inhibitory concentration (MIC) in test [1] was > 100 µg/mL. For the same compound, 20.3 µM corresponded to half-maximal inhibition in test [2] (IC50).
As for `COC(=O)/C=C1\Nc2ccc(Cl)cc2OC1=O`, the minimum inhibitory concentration (MIC) in test [1] turned out to be 0.63 µg/mL (≈ 2.48 µM). In [2], the IC50 came to 35.7 µM.
Turning to `Cc1ccc2c(c1)N/C(=C\C(=O)c1ccccc1Cl)C(=O)O2`, in test [1], 100 µg/mL (≈ 319 µM) was the least that counted as inhibitory (MIC). Moreover, the “growth inhibition (GI)” value in the test on Escherichia coli [3] and in the test with Staphylococcus aureus was “Active” in each case. Besides, the inhibition entry in [4] is “inactive”.
Regarding `COC(=O)/C=C1\Nc2ccc(F)cc2OC1=O`, the lowest concentration to inhibit growth in test [1] (MIC) was 0.63 µg/mL (≈ 2.66 µM). Besides, in test [2], the half-inhibitory concentration (IC50) was determined as 30 µM.
In test [5], `CC(C)(C)/C(O)=C/c1nc2ccccc2oc1=O` showed an inhibition of 68.4%. The inhibition entry with Escherichia coli [6] is “inactive”.
Turning to `CCS(=O)(=O)c1ccc2c(c1)N/C(=C\C(=O)OC)C(=O)O2`, in [1], the minimum inhibitory concentration (MIC) was > 100 µg/mL. The compound also displayed an IC50 in test [2] of 17.9 µM.
Consider `CC(C)CC(=O)/C=C1\Nc2cc(Cl)ccc2OC1=O`, for which, in test [5], the inhibition is 98%. Further, the inhibition result in the test on Escherichia coli [6] was “inactive”.
In test [1], `O=C1Oc2ccccc2N/C1=C\C(=O)c1ccccc1Cl` had an MIC of 3.13 µg/mL (≈ 10.4 µM). In addition, the “growth inhibition (GI)” value with Escherichia coli [3] and in the test with Staphylococcus aureus was “Active” each time. Moreover, the inhibition result in test [4] is “inactive”.
In the case of `COC(=O)/C=C1\Nc2cc(C)ccc2OC1=O`, the minimal inhibitory concentration (MIC) in test [1] is > 100 µg/mL. Further, the midpoint of inhibition in test [2], the IC50, lay at 23.1 µM.
The compound `COC(=O)/C=C1\Nc2cc(F)ccc2OC1=O` yielded a minimum inhibitory concentration (MIC) in test [1] of 0.63 µg/mL (≈ 2.66 µM). Besides, half-maximal inhibition in [2] (IC50) required 27 µM. The Ki amounted to 10.1 µM in test [7] and 11.5 µM in [8].
The like results for `COC(=O)/C=C1\Nc2ccccc2OC1=O` were, in that order, 0.64 µg/mL (≈ 2.92 µM), 10 µM, 67 µM and 9.1 µM.
Take `O=C1Oc2cc(F)ccc2N/C1=C\C(=O)c1ccccc1Cl`: it took 1.56 µg/mL (≈ 4.91 µM) to inhibit growth in [1] (MIC). Also, the “growth inhibition (GI)” value in the test with Escherichia coli [3] and in the test with Staphylococcus aureus was “Active” throughout. In test [4], the inhibition entry was “inactive”.
In the case of `CCS(=O)(=O)c1ccc2c(c1)N/C(=C\C(=O)C(C)(C)C)C(=O)O2`, the inhibition in test [5] was 60.3%. Further, the inhibition entry in the test on Escherichia coli [6] was “inactive”.
For the compound `O=C1Oc2cc(Cl)ccc2N/C1=C\C(=O)c1ccccc1Cl`, the MIC in [1] was found to be 3.13 µg/mL (≈ 9.37 µM). Further, the “growth inhibition (GI)” value in the test on Escherichia coli [3] and with Staphylococcus aureus was “Active” each time. Further, the inhibition entry in test [4] was “inactive”.
`COC(=O)/C=C1\Nc2c(C)cccc2OC1=O` showed an MIC in test [1] of 25 µg/mL (≈ 107 µM). In test [2], this compound returned an IC50 of 24.1 µM.
`COC(=O)/C=C1\Nc2cc(Cl)ccc2OC1=O` gave a minimum inhibitory concentration (MIC) in test [1] of 5 µg/mL (≈ 19.7 µM). Also, the IC50 in test [2] is 46.3 µM. In addition, the inhibition constant Ki in test [7] stood at 18.5 µM; in test [8], 22.5 µM.
In test [1], `COC(=O)/C=C1\Nc2cc([N+](=O)[O-])ccc2OC1=O` showed a minimum inhibitory concentration (MIC) of 50 µg/mL (≈ 189 µM). This compound yielded a half-inhibitory concentration (IC50) in test [2] of 28.2 µM.
Regarding `COC(=O)/C=C1\Nc2ccccc2SC1=O`, the MIC in test [1] was > 100 µg/mL. In addition, the Activity with Mycobacterium avium is >64 µg/mL. For the same compound, the IC50 in test [2] is > 140 µM.
